Measured values from patent US12391647B2, “Benzamide compound and preparation method, use, and pharmaceutical composition thereof” (INSTITUTE OF MATERIA MEDICA, CHINESE ACADEMY OF MEDICAL …, priority 2018, dated 2025).

Experiments:
[1] = test system: human prostate cancer cell DU145; assay: MTT assay, survival rate of tumor cells (antiproliferative activity); type: cell-based; settings: DU-145, 72 h, read-out: Antiproliferative activity against human prostate cancer cell DU145, IC50
Protocol: DU145 cells (human prostate cancer cells) in logarithmic growth phase were digested with 0.25% trypsin-EDTA to prepare single cell suspension, which was inoculated into 96-well plate overnight according to 1500 cells/well/100 μL, and fresh medium containing different concentrations of compounds to be tested and corresponding solvent control was added, and 100 μL (DMSO final concentration <0.1%) was added to each well, and the 96-well plate was further cultured at 37° C. for 72 h. 20 μL of freshly prepared PBS solution containing 5 mg/mL MTT was added to each well, and the 96-well plate was further cultured for 4 h. After the supernatant was discarded, 180 μL of DMSO was added to each well to dissolve the MTT formazan precipitate. After the 96-well plate was shaked and mixed by a micro oscillator, the optical density (OD) at the detection wavelength of 570 nm was measured. With DMSO-treated tumor cells as the control group, the inhibition rate on the growth of tumor cells of the compound to be tested was calculated from the following formula, and the IC50 was calculated according to the median-effect equation. Inhibition rate (%)=(average OD value of control group-average OD value of dosing group)/average OD value of control group×100%

[2] = test system: STAT3 transcription; assay: STAT3 specific luciferase double reporter gene experiment in DU145 cells; type: cell-based, human; settings: for STAT3 transcription inhibition activity: DU145, STAT3 specific luciferase double reporter; for IC50: Homo sapiens, DU-145, DU145 with high STAT3 expression, 24 h
Protocol: The luciferase plasmids STAT3-TA-Luc and pGMLR-TK were transiently co-transfected into DU145 cells by Lipofectamine 3000. After staying overnight, different concentrations of compounds to be tested were added and cultured for 24 hours. The supernatant was discarded, and the residue was washed twice with PBS, and then 20 μL of lysis solution was added to shake and lyse for 5 min. The supernatant was transferred to a 96-well Costar whiteplate, and 70 μL of Dual-Glo luciferase substrate solution was added, and the relative fluorescence intensity of firefly luciferase was detected, and then 70 μL of Stop-Glo substrate solution was added, and the relative fluorescence intensity of sea kidney luciferase was detected, the normalized value was obtained, and the inhibition rate and IC50 value were calculated.

Row | SMILES | IC50 [1] [nM] | STAT3 transcription inhibition activity [2] | IC50 [2] [nM]
1 | Cc1ccc(S(=O)(=O)Nc2cccc(C(=O)NCc3cccnc3)c2)cc1 [Example 2, 3-((4-methylphenyl)sulfonamido)-N-(pyridin-3-ylmethyl)benzamide] | 700 ± 150 | – | –
2 | Cc1ccc(S(=O)(=O)Nc2cc(C(=O)NCc3cccnc3)ccc2F)cc1 [Example 3, 4-fluoro-3-((4-methylphenyl)sulfonamido)-N-(pyridin-3-ylmethyl) benzamide] | 790 ± 130 | – | –
3 | Cc1ccc(S(=O)(=O)Nc2cc(C(=O)NCc3cccnc3)ccc2Cl)cc1 [Example 4, 4-chloro-3-((4-methylphenyl)sulfonamido)-N-(pyridin-3-ylmethyl) benzamide] | 800 ± 120 | – | –
4 | CCc1ccc(C(=O)NCc2cccnc2)cc1NS(=O)(=O)c1ccc(C)cc1 [Example 6, 4-ethyl-3-((4-methylphenyl)sulfonamido)-N-(pyridin-3-ylmethyl)benzamide] | 860 ± 80 | obvious STAT3 transcription inhibition activity | 9700 ± 1300
5 | Cc1ccc(S(=O)(=O)Nc2cc(C)cc(C(=O)NCc3cccnc3)c2)cc1 [Example 7, 3-methyl-5-((4-methylphenyl)sulfonamido)-N-(pyridin-3-ylmethyl)benzamide] | 340 ± 10 | – | –
6 | Cc1ccc(S(=O)(=O)Nc2cc(F)cc(C(=O)NCc3cccnc3)c2)cc1 [Example 9, 3-fluoro-5-((4-methylphenyl)sulfonamido)-N-(pyridin-3-ylmethyl)benzamide] | 900 ± 20 | obvious STAT3 transcription inhibition activity | 6200 ± 300
7 | Cc1ccc(S(=O)(=O)Nc2cc(Cl)cc(C(=O)NCc3cccnc3)c2)cc1 [Example 10, 3-chloro-5-((4-methylphenyl)sulfonamido)-N-(pyridin-3-ylmethyl)benzamide] | 340 ± 10 | – | –
8 | Cc1ccc(S(=O)(=O)Nc2ccc(C)c(C(=O)NCc3cccnc3)c2)cc1 [Example 11, 2-methyl-5-((4-methylphenyl)sulfonamido)-N-(pyridin-3-ylmethyl)benzamide] | 2000 ± 30 | – | –
9 | COc1ccc(S(=O)(=O)Nc2cc(C(=O)NCc3cccnc3)ccc2C)cc1 [Example 13, 3-((4-methoxyphenyl)sulfonamido)-4-methyl-N-(pyridin-3-ylmethyl)benzamide] | 180 ± 80 | obvious STAT3 transcription inhibition activity | 10000 ± 2100
10 | COc1cccc(S(=O)(=O)Nc2cc(C(=O)NCc3cccnc3)ccc2C)c1 [Example 14, 3-((3-methoxyphenyl)sulfonamido)-4-methyl-N-(pyridin-3-ylmethyl)benzamide] | 2500 ± 20 | – | –
11 | CCOc1ccc(S(=O)(=O)Nc2cc(C(=O)NCc3cccnc3)ccc2C)cc1 [Example 15, 3-((4-ethoxyphenyl)sulfonamido)-4-methyl-N-(pyridin-3-ylmethyl)benzamide] | 860 ± 60 | – | –
12 | Cc1ccc(S(=O)(=O)Nc2cc(C(=O)NCc3cccnc3)ccc2C)cc1C [Example 16, 3-((3,4-dimethylphenyl)sulfonamido)-4-methyl-N-(pyridin-3-ylmethyl)benzamide] | 970 ± 30 | – | –
13 | Cc1ccc(S(=O)(=O)Nc2cc(C(=O)NCc3cccnc3)ccc2C)c(C)c1 [Example 17, 3-((2,4-dimethylphenyl)sulfonamido)-4-methyl-N-(pyridinylmethyl)benzamide] | 500 ± 40 | – | 8200 ± 20
14 | Cc1ccc(C(=O)NCc2cccnc2)cc1NS(=O)(=O)c1ccc(F)cc1 [Example 20, 3-((4-fluorophenyl)sulfonamido)-4-methyl-N-(pyridin-3-ylmethyl)benzamide] | 3470 ± 1220 | obvious STAT3 transcription inhibition activity | 15000 ± 1400
15 | Cc1ccc(C(=O)NCc2cccnc2)cc1NS(=O)(=O)c1ccc(Cl)cc1 [Example 21, 3-((4-chlorophenyl)sulfonamido)-4-methyl-N-(pyridin-3-ylmethyl)benzamide] | 930 ± 50 | – | –
16 | Cc1ccc(C(=O)NCc2cccnc2)cc1NS(=O)(=O)c1ccc(C(C)C)cc1 [Example 22, 3-((4-isopropylphenyl)sulfonamido)-4-methyl-N-(pyridin-3-ylmethyl)benzamide] | 1000 ± 160 | – | –
17 | Cc1ccc(C(=O)NCc2cccnc2)cc1NS(=O)(=O)c1ccc2c(c1)CCC2 [Example 25, 3-((2,3-dihydro-1H-indene)-5-sulfonamido)-4-methyl-N-(pyridinylmethyl)benzamide] | 900 ± 40 | – | –
18 | Cc1ccc(C(=O)NCc2cccnc2)cc1NS(=O)(=O)c1ccc2c(c1)OCO2 [Example 26, 3-(benzo[d][1,3]dioxole-5-sulfonamido)-4-methyl-N-(pyridin-3-ylmethyl)benzamide] | 610 ± 140 | – | –
19 | Cc1ccc(C(=O)NCc2cccnc2)cc1NS(=O)(=O)c1ccc2c(c1)CCO2 [Example 27, 3-((2,3-dihydrobenzofuran)-5-sulfonamido)-4-methyl-N-(pyridin-3-ylmethyl)benzamide] | 1200 ± 10 | – | –
20 | Cc1ccc(C(=O)NCc2cccnc2)cc1NS(=O)(=O)c1ccc2c(c1)OCCO2 [Example 28, 3-((2,3-dihydrobenzo[b][1,4]dioxine)-6-sulfonamido)-4-methyl-N-(pyridin-3-ylmethyl)benzamide] | 420 ± 10 | – | –
21 | Cc1ccc(C(=O)NCc2cccnc2)cc1NS(=O)(=O)c1ccc2ccccc2c1 [Example 29, 4-methyl-3-(naphthalene-2-sulfonamido)-N-(pyridin-3-ylmethyl)benzamide] | 1000 ± 70 | – | –
22 | Cc1ccc(S(=O)(=O)Nc2cc(C(=O)NCc3cccnc3)ccc2C)s1 [Example 30, 4-methyl-3-((5-methylthiophene)-2-sulfonamido)-N-(pyridin-3-ylmethyl)benzamide] | 1200 ± 30 | obvious STAT3 transcription inhibition activity | 17500 ± 300
23 | COc1ccc(S(=O)(=O)Nc2cc(C(=O)NCc3cccnc3)ccc2C)cn1 [Example 32, 3-((6-methoxypyridine)-3-sulfonamido)-4-methyl-N-(pyridin-3-ylmethyl)benzamide] | 400 ± 20 | – | –
24 | Cc1ccc(S(=O)(=O)Nc2cc(C(=O)NCc3ccc(C(F)(F)F)nc3)ccc2C)cc1 [Example 35, 4-methyl-3-((4-methylphenyl)sulfonamido)-N-((6-(trifluoromethyl)pyridin-3-yl)methyl)benzamide] | 200 ± 70 | obvious STAT3 transcription inhibition activity | 8000
